Data taken from ChEMBL document CHEMBL1136438, “Inhibitors of hepatitis C virus NS3.4A protease 1. Non-charged tetrapeptide variants” (Bioorg Med Chem Lett, 2003).
pKi: −log10 of the molar value. *1 amine or outer side, *2 acyl side, *3 side chain or, on linkers, in order; H or OH if unused. Where a SMILES comes first, the peptide text is derived from it. Side-chain parts run from the residue outwards. [ ]: non-standard residue; d: D form. The star is where a group is joined. ξ: configuration not given here. Pro(4R-OPh) = O=C(O)[C@@H]1C[C@@H](Oc2ccccc2)CN1; CH2(1-naphthyl) = c1ccc2c(C*)cccc2c1; NH(1-naphthyl) = c1ccc2c(N*)cccc2c1; Adipoyl = O=C(CCCCC(=O)[*:2])[*:1]; 1Naphthoyl = O=C(c1cccc2ccccc12)*; 2Naphthoyl = O=C(c1ccc2ccccc2c1)*; Pyrazinecarbonyl = O=C(c1cnccn1)*; Hyp = O=C(O)[C@@H]1C[C@@H](O)CN1; ξAla(CF3) = NC(CC(F)(F)F)C(=O)O; Nva = CCC[C@H](N)C(=O)O; X1 = c1ccc2cc(C*)ccc2c1; X2 = Clc1ccc(Cl)c(N*)c1; X4 = COc1ccc(OC)c(N*)c1; 2Abz = Nc1ccccc1C(=O)O; Abu = CC[C@H](N)C(=O)O; X3 = c1ccc2c(c1)CCCN2*; Aib = CC(C)(N)C(=O)O; CO = O=C([*:1])[*:2]; Bz = O=C(c1ccccc1)*; NHPh = c1ccc(N*)cc1; Bn = c1ccc(C*)cc1

How the values were obtained:
[1] = target: Hepatitis C virus serine protease, NS3/NS4A (Hepatitis C virus, UniProt A3EZI9+D2K2A8); assay: (§1) Inhibition of HCV (Hepatitis C Virus) NS3-4A protease.; type: protein-complex assay, Hepacivirus hominis
Sequence of Hepatitis C virus serine protease, NS3/NS4A (Hepatitis C virus, UniProt A3EZI9+D2K2A8) (D2K2A8 whole entry): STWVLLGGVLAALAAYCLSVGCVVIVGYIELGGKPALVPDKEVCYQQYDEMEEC
Sequence of Hepatitis C virus serine protease, NS3/NS4A (Hepatitis C virus, UniProt A3EZI9+D2K2A8) (A3EZI9 whole entry): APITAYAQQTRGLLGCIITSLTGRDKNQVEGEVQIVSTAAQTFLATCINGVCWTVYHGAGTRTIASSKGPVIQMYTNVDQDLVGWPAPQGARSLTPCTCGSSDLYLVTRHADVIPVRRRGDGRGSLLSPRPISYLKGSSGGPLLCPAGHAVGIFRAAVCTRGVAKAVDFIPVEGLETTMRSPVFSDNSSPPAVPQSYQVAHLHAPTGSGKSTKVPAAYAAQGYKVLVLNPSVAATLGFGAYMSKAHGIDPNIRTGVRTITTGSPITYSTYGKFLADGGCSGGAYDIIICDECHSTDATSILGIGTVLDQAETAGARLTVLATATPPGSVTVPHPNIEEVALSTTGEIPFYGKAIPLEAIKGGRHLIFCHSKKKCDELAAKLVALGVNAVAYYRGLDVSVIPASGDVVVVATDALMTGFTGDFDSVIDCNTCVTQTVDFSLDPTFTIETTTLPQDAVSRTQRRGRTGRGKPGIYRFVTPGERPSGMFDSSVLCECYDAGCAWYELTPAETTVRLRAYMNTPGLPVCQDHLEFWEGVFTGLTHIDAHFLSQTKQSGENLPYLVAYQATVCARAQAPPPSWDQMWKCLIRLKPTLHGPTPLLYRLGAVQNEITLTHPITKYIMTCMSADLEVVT

[2] = target: Hepatitis C virus serine protease, NS3/NS4A (Hepatitis C virus, UniProt D2K2A8+A3EZI9); assay: as §1; type: protein-complex assay, Hepacivirus hominis
Sequence of Hepatitis C virus serine protease, NS3/NS4A (Hepatitis C virus, UniProt D2K2A8+A3EZI9) (D2K2A8 whole entry): as the sequence (D2K2A8 whole entry) above
Sequence of Hepatitis C virus serine protease, NS3/NS4A (Hepatitis C virus, UniProt D2K2A8+A3EZI9) (A3EZI9 whole entry): as the sequence (A3EZI9 whole entry) above

Question: `COC[C@@H](C=O)NC(=O)[C@@H]1C[C@@H](OCc2ccccc2)CN1C(=O)[C@@H](NC(=O)[C@@H](NC(=O)c1cnccn1)C(C)C)C(C)C` (Pyrazinecarbonyl-VV[Hyp](Bn)S(Me)-aldehyde) was tested. Which pKi [1] did it give?
Answer: The pKi was less than 4.30.

Question: `CCC[C@@H](C=O)NC(=O)[C@@H]1C[C@@H](OCc2ccccc2)CN1C(=O)[C@@H](NC(=O)[C@@H](NC(=O)c1cnccn1)C(C)C)C(C)C` (Pyrazinecarbonyl-VV[Hyp](Bn)[Nva]-aldehyde) was tested. Which pKi [1] did it give?
Answer: The pKi was 5.42.

Question: How did the pKi [1] turn out when `CC(C)[C@H](NC(=O)c1cnccn1)C(=O)N[C@H](C(=O)N1C[C@H](OCc2ccccc2)C[C@H]1C(=O)NC(C=O)CC(F)(F)F)C(C)C` (some centres not stated) (Pyrazinecarbonyl-VV[Hyp](Bn)[ξAla(CF3)]-aldehyde) was run?
Answer: Its pKi is 5.51.

Question: How did the pKi [2] turn out when `CC[C@@H](C=O)NC(=O)[C@@H]1C[C@@H](OC(=O)c2ccccc2)CN1C(=O)[C@@H](NC(=O)[C@@H](NC(=O)c1cnccn1)C(C)C)C(C)C` (Pyrazinecarbonyl-VV[Hyp](Bz)[Abu]-aldehyde) was run?
Answer: Its pKi is 5.24.

Question: How did the pKi [2] turn out when `CC[C@@H](C=O)NC(=O)[C@@H]1C[C@@H](OC(=O)Nc2ccccc2)CN1C(=O)[C@@H](NC(=O)[C@@H](NC(=O)c1cnccn1)C(C)C)C(C)C` (Pyrazinecarbonyl-VV[Hyp]([CO-NHPh])[Abu]-aldehyde) was run?
Answer: Its pKi is 4.65.

Question: `CC[C@@H](C=O)NC(=O)[C@@H]1C[C@@H](OC(=O)c2ccc3ccccc3c2)CN1C(=O)[C@@H](NC(=O)[C@@H](NC(=O)c1cnccn1)C(C)C)C(C)C` (Pyrazinecarbonyl-VV[Hyp](2Naphthoyl)[Abu]-aldehyde) was tested. Which pKi [2] did it give?
Answer: The pKi was 6.40.

Question: `CC[C@@H](C=O)NC(=O)[C@@H]1C[C@@H](OC(=O)Nc2cc(Cl)ccc2Cl)CN1C(=O)[C@@H](NC(=O)[C@@H](NC(=O)c1cnccn1)C(C)C)C(C)C` (Pyrazinecarbonyl-VV[Hyp]([CO-X2])[Abu]-aldehyde) was tested. Which pKi [2] did it give?
Answer: Its pKi is 5.49.

Question: How did the pKi [2] turn out when `CC[C@@H](C=O)NC(=O)[C@@H]1C[C@@H](OCc2ccc3ccccc3c2)CN1C(=O)[C@@H](NC(=O)[C@@H](NC(=O)c1cnccn1)C(C)C)C(C)C` (Pyrazinecarbonyl-VV[Hyp](X1)[Abu]-aldehyde) was run?
Answer: Its pKi is 5.77.

Question: With `CC[C@@H](C=O)NC(=O)[C@@H]1C[C@@H](Oc2cccc3cccnc23)CN1C(=O)[C@@H](NC(=O)[C@@H](NC(=O)c1cnccn1)C(C)C)C(C)C` as the compound, how does the pKi [2] read?
Answer: Its pKi is less than 4.30.

Question: How did the pKi [2] turn out when `CC[C@@H](C=O)NC(=O)[C@@H]1C[C@@H](OCc2cccc3ccccc23)CN1C(=O)[C@@H](NC(=O)[C@@H](NC(=O)c1cnccn1)C(C)C)C(C)C` (Pyrazinecarbonyl-VV[Hyp](CH2(1-naphthyl))[Abu]-aldehyde) was run?
Answer: The pKi was 5.54.

Question: `CC[C@@H](C=O)NC(=O)[C@@H]1C[C@@H](OCc2ccccc2)CN1C(=O)[C@@H](NC(=O)[C@@H](NC(=O)c1cnccn1)C(C)C)C(C)C` (Pyrazinecarbonyl-VV[Hyp](Bn)[Abu]-aldehyde) was tested. Which pKi [1] did it give?
Answer: The pKi was 4.92.

Question: How did the pKi [2] turn out when `CC[C@@H](C=O)NC(=O)[C@@H]1C[C@@H](Oc2ccccc2)CN1C(=O)[C@@H](NC(=O)[C@@H](NC(=O)c1cnccn1)C(C)C)C(C)C` (Pyrazinecarbonyl-VV[Pro(4R-OPh)][Abu]-aldehyde) was run?
Answer: The pKi was 5.41.

Question: How did the pKi [2] turn out when `CC[C@@H](C=O)NC(=O)[C@@H]1C[C@@H](OC(=O)Nc2cc(OC)ccc2OC)CN1C(=O)[C@@H](NC(=O)[C@@H](NC(=O)c1cnccn1)C(C)C)C(C)C` (Pyrazinecarbonyl-VV[Hyp]([CO-X4])[Abu]-aldehyde) was run?
Answer: The pKi was 5.10.

Question: With `CC[C@@H](C=O)NC(=O)[C@@H]1C[C@@H](OC(=O)N2CCCc3ccccc32)CN1C(=O)[C@@H](NC(=O)[C@@H](NC(=O)c1cnccn1)C(C)C)C(C)C` (Pyrazinecarbonyl-VV[Hyp]([CO-X3])[Abu]-aldehyde) as the compound, how does the pKi [2] read?
Answer: The pKi was 6.05.

Question: `CC[C@@H](C=O)NC(=O)[C@@H]1C[C@@H](Oc2ccc3ccccc3c2)CN1C(=O)[C@@H](NC(=O)[C@@H](NC(=O)c1cnccn1)C(C)C)C(C)C` was tested. Which pKi [2] did it give?
Answer: Its pKi is 5.13.

Question: How did the pKi [2] turn out when `CC[C@@H](C=O)NC(=O)[C@@H]1C[C@@H](OC(=O)Nc2cccc3ccccc23)CN1C(=O)[C@@H](NC(=O)[C@@H](NC(=O)c1cnccn1)C(C)C)C(C)C` (Pyrazinecarbonyl-VV[Hyp]([CO-NH(1-naphthyl)])[Abu]-aldehyde) was run?
Answer: Its pKi is 4.90.

Question: How did the pKi [2] turn out when `CC[C@@H](C=O)NC(=O)[C@@H]1C[C@@H](Oc2cccc3ccccc23)CN1C(=O)[C@@H](NC(=O)[C@@H](NC(=O)c1cnccn1)C(C)C)C(C)C` was run?
Answer: Its pKi is 5.68.

Question: With `CC[C@@H](C=O)NC(=O)[C@@H]1C[C@@H](OC(=O)c2cccc3ccccc23)CN1C(=O)[C@@H](NC(=O)[C@@H](NC(=O)c1cnccn1)C(C)C)C(C)C` (Pyrazinecarbonyl-VV[Hyp](1Naphthoyl)[Abu]-aldehyde) as the compound, how does the pKi [2] read?
Answer: Its pKi is 5.72.

Question: How did the pKi [1] turn out when `CC[C@@H](C=O)NC(=O)[C@@H]1C[C@@H](OCc2ccccc2)CN1C(=O)[C@@H](NC(=O)[C@@H](NC(=O)[C@H](CC(=O)O)NC(=O)[C@H](CCC(=O)O)NC(C)=O)C(C)C)C(C)C` (Ac-EDVV[Hyp](Bn)[Abu]-aldehyde) was run?
Answer: The pKi was 6.05.

Question: How did the pKi [2] turn out when `CC[C@@H](C=O)NC(=O)[C@@H]1C[C@@H](OC(=O)Nc2ccccc2C(=O)OC)CN1C(=O)[C@@H](NC(=O)[C@@H](NC(=O)c1cnccn1)C(C)C)C(C)C` (Pyrazinecarbonyl-VV[Hyp]([CO-2Abz-OMe])[Abu]-aldehyde) was run?
Answer: The pKi was 5.60.

Question: With `CC(C)[C@H](NC(=O)c1cnccn1)C(=O)N[C@H](C(=O)N1C[C@H](OCc2ccccc2)C[C@H]1C(=O)NC(C)(C)C=O)C(C)C` (Pyrazinecarbonyl-VV[Hyp](Bn)[Aib]-aldehyde) as the compound, how does the pKi [1] read?
Answer: Its pKi is less than 4.30.

Question: How did the pKi [2] turn out when `CC[C@@H](C=O)NC(=O)[C@@H]1C[C@@H](OC(=O)c2ccc3ccccc3c2)CN1C(=O)[C@@H](NC(=O)[C@@H](NC(=O)CCCCC(=O)O)C(C)C)C(C)C` (Adipoyl-VV[Hyp](2Naphthoyl)[Abu]-aldehyde) was run?
Answer: Its pKi is 6.96.
